{
  "source": "patent US20190307740A1",
  "about": "“COMPOSITIONS AND METHODS FOR TREATMENT RELATED TO FALL AND FALL FREQUENCY IN NEURODEGENERATIVE DISEASES” (Neurocea, LLC, priority 2016, published 2019)",
  "key": {"nAChR": {"tested_on": "nAChR", "conditions": "cited from earlier work"}, "[1]": {"tested_on": "subjects with idiopathic PD with LIDs", "conditions": "for Study discontinuation, primary reason adverse event, n (%): 35 randomized", "description": "(§1) At the time the study was performed (2009), there was no FDA accepted instrument for measuring treatment efficacy for LIDs. Therefore, several secondary objectives were utilized to assess efficacy including the Unified Dyskinesia Rating Scale (UDysRS).\nA total of 65 male and female subjects with idiopathic PD with LIDs were randomized in the study. The study consisted of 4 phases (FIG. 6A): screening phase (up to 3 weeks), double-blind treatment phase (10 weeks), taper phase (2 weeks), and follow-up phase (2 weeks). The approximate duration of the study for each subject was 17 weeks. […] During the double-blind treatment phase, dosing was begun at Visit 0 at 1 mg every 6 hours (total daily dose [TDD]=4 mg/day) and escalated upwards at 2-week intervals as follows: 2 mg every 6 hours (TDD=8 mg/day) at Visit 1 (Week 2); 4 mg every 6 hours (TDD=16 mg/day) at Visit 2 (Week 4); 6 mg every 6 hours (TDD=24 mg/day) at Visit 3 (Week 6). Subjects were maintained on 24 mg/day for 4 weeks. The subsequent taper phase (2 weeks total), beginning at Visit 4 (Week 10), consisted of 9 days of drug taper and 5 days off drug prior to Visit 5 (final safety visit). […] Ondansetron was provided by the sponsor and dispensed with each dose escalation step with instructions to use it for nausea and vomiting only during the first 4 days following dose initiation or escalation. […] No other dose down-titration was allowed.\n(§2) Efficacy was measured with the Unified Dyskinesia Rating Scale (UDysRS), a semi-quantitative assessment, FDA-validated instrument to assess […] dyskinesia in PD. […] Dosing was begun at 1 mg every 6 hours to a final dose of 24 mg per day. Patients who tolerated a total daily dose of at least 16 mg per day continued in the study.\nSubjects were maintained on 24 mg/day for 4 weeks. The subsequent taper phase (2 weeks total), beginning at visit 4 (Week 10), consisted of 9 days of drug taper and 5 days off drug prior to Visit 5 (final safety visit). […] No other down-titration was allowed.\n(§3) LIDs were assessed by the UDysRS, the main measure of LIDs (Table 12). […] The study was conducted in accordance with the Declaration of Helsinki and Good Clinical Practice Guidelines. All sites received approval from an institutional review board and written informed consent was obtained from each patient prior to participation."}, "[2]": {"tested_on": "subjects with idiopathic PD with LIDs", "description": "as §1, §2, §3\n(§4) The efficacy variables for LIDs were the mean change from baseline to week 10 in the UDysRS total score; UDysRS sub-scores (Table 12). An analysis of covariance (ANCOVA) combined features of regression and analysis of variance (ANOVA). In addition to the descriptive summary of each variable from baseline to endpoint, Least Square (LS) means standard errors and 95% Confidence intervals (CI) of each group, and the difference of LS means between the 2 treatment groups and its 95% CI are presented. A similar analysis was applied to comparisons between UPDRS Part II, UPDRS Part III."}, "[3]": {"tested_on": "subjects with idiopathic PD with LIDs", "conditions": "during the 10-week study", "excerpt": "The original UPDRS scale was used. […] In the UPDRS Part II, Question 13 is on Falling unrelated to Freezing. […] In Part II, Question 14 is on Freezing when Walking. This is a 5-point item and has two variables freezing and falls. […] Questions 13 and 14 were compared separately (Table 11).\nas §4"}, "[4]": {"tested_on": "subjects with idiopathic PD with LIDs", "conditions": "Visit 4 (Week 10)", "description": "as §1"}, "[5]": {"conditions": "cited from earlier work; for absorption: oral / gastrointestinal tract"}, "[6]": {"tested_on": "rats with a unilateral 6-hydroxydopamine lesion", "assay": "LIDs in rats with a unilateral 6-hydroxydopamine lesion", "assay_type": "in vivo", "conditions": "parkinsonian rat model of LIDs"}, "all nAChRs": {"biological_target": "all nAChRs", "conditions": "cited from earlier work"}, "[7]": {"conditions": "Phase 2 data used for sample size"}},
  "note": "Read-outs that look alike come from different tables or passages of the source.",
  "data": [
    {"compound": "Clc1cc(N2C[C@@H]3CN[C@@H]3C2)cnc1Cl", "note": "[ABT-894]", "values": [
      {"measurement": "Type of agonist", "setting": "nAChR", "result": "Full"}
    ]},
    {"compound": "c1cc2cc(-c3ccc(O[C@H]4CN5CCC4CC5)nn3)ccc2[nH]1", "note": "[ABT-107]", "values": [
      {"measurement": "Type of agonist", "setting": "nAChR", "result": "Full"}
    ]},
    {"compound": "CN1CCC[C@H]1c1cccnc1", "note": "[Nicotine, (S)-3-[1-methylpyrrolidin-2-yl]pyridine, reference compound]", "values": [
      {"measurement": "Study discontinuation, primary reason adverse event, n (%)", "setting": "[1]", "result": "6 n (%)"},
      {"measurement": "Study discontinuation, primary reason adverse event, n (%)", "setting": "[1]; listed as nicotine", "result": "Six"},
      {"measurement": "impulsivity and nicotine withdrawal symptoms", "setting": "[1]; after taper from 24 mg/day", "result": "no issues with impulsivity or withdrawal symptoms"},
      {"measurement": "overall safety and tolerability", "setting": "[1]; oral 4 times/day up to 24 mg/day, 10 weeks", "result": "safe and well tolerated"},
      {"measurement": "UDysRS part III, Week 10 result: change from baseline, mean", "setting": "[2]; [7]", "result": 5.2},
      {"measurement": "UDysRS walking, Week 10 result: change from baseline, mean", "setting": "[2]; [7]", "result": 4.4},
      {"measurement": "Gait-subtest of the UDysRS vs placebo", "setting": "[2]; in vivo", "result": "statistically superior to placebo"},
      {"measurement": "dyskinesia disability (UDysRS part 3), Walking, LF-ADL and PGI-C responders vs placebo", "setting": "[2]; in vivo", "result": "Statistically significant differences favoring nicotine compared to placebo"},
      {"measurement": "worsening of Parkinson symptoms (UPDRS Part III, Hoehn and Yahr)", "setting": "[3]", "result": "neither the UPDRS Part III nor the Hoehn and Yahr scales showed any worsening"},
      {"measurement": "worsening of Parkinson symptoms (UPDRS Part III, Hoehn and Yahr)", "setting": "[3]; listed as nicotine", "result": "did not cause any worsening of the PD symptoms"},
      {"measurement": "PGI-C responders (score of 1, 2, or 3)", "setting": "[4]; p=0.0048 vs placebo", "result": "21 (77.8%)"},
      {"measurement": "LF-ADL responders (>25% reduction from baseline), vs placebo", "setting": "[4]; p=0.0453", "result": "statistically significant difference between treatment groups"},
      {"measurement": "efficacy over time", "setting": "rats and mice; in vivo", "result": "no decline in its efficacy over time"},
      {"measurement": "effect on LIDs", "setting": "rats and mice; oral application, injection, slow-release minipumps", "result": "reduced LIDs"},
      {"measurement": "Type of agonist", "setting": "nAChR", "result": "Full"},
      {"measurement": "nAChR subtype", "setting": "nAChR", "result": "All"},
      {"measurement": "first-pass metabolism", "setting": "[5]; in vivo", "result": "extensively metabolized into cotinine"},
      {"measurement": "half-life", "setting": "[5]; in vivo", "result": "very short half-life"},
      {"measurement": "absorption", "setting": "[5]", "result": "well-absorbed in the gastrointestinal tract"},
      {"measurement": "absorption", "setting": "[5]; listed as nicotine", "result": "rapidly absorbed"}
    ]},
    {"compound": "CN[C@@H](C)C/C=C/c1cncc(OC)c1", "note": "[TC-2696]", "values": [
      {"measurement": "effect on LIDs", "setting": "[6]", "result": "reduced LIDs to varying extents"}
    ]},
    {"compound": "OCCCCC#Cc1cncc(OC[C@@H]2CCN2)c1", "note": "[sazetidine]", "values": [
      {"measurement": "effect on LIDs", "setting": "[6]", "result": "reduced LIDs to varying extents"}
    ]},
    {"compound": "O=C(c1ccc(Cl)o1)N1CC2CNCC2C1", "note": "(centres unmarked) [AZD1446]", "values": [
      {"measurement": "Type of agonist", "setting": "nAChR", "result": "Full"}
    ]},
    {"compound": "c1cnc2cc3c(cc2n1)[C@@H]1CNC[C@H]3C1", "note": "[Varenicline]", "values": [
      {"measurement": "effect on LIDs", "setting": "[6]", "result": "reduced LIDs to varying extents"},
      {"measurement": "Ki", "setting": "all nAChRs", "result": 0.1, "unit": "nM"},
      {"measurement": "Type of agonist", "setting": "nAChR", "result": "Partial"},
      {"measurement": "nAChR subtype", "setting": "nAChR", "result": "All"}
    ]},
    {"compound": "Cc1ccc(-c2ccc(OC3CN4CCC3CC4)cn2)cc1", "note": "(centres unmarked) [AQW051]", "values": [
      {"measurement": "Type of agonist", "setting": "nAChR", "result": "Partial"}
    ]},
    {"compound": "Cc1ncccc1OC[C@@H]1CCCN1", "note": "[ABT-089]", "values": [
      {"measurement": "Type of agonist", "setting": "nAChR", "result": "Partial"}
    ]},
    {"compound": "c1cncc(OC[C@@H]2CCN2)c1", "note": "[A-85380]", "values": [
      {"measurement": "effect on LIDs", "setting": "[6]", "result": "reduced LIDs to varying extents"}
    ]}
  ]
}
